Here are results for eight compounds from PubChem BioAssay (NCI).

Structures are written as SMILES.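 Where inhibition never reached the appropriate level, the endpoint shown equals the highest concentration tested. Otherwise, values were interpolated linearly from a five-concentration, 48-hour dose response in 96-well plates. GI50 is the concentration that inhibits growth by half. TGI marks complete inhibition of growth.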

Common to all, as to experiment: growth of human tumour cells (NCI), 48 h
Assay [1] deals with NCI-H522 lung.
Assay [2] concerns SK-MEL-2 melanoma.
The subject of assay [3] is OVCAR-4 ovarian.
Assay [4] concerns SK-MEL-28 melanoma.
For assay [5], the system named is SN12C renal.
The test system of assay [6] is PC-3 prostate.
For assay [7], the system named is RXF 393 renal.
Assay [8] deals with SF-295 CNS.
The test system of assay [9] is SF-539 CNS.
Assay [10] concerns SW-620 colon.

Turning to `Cc1nnc(Nc2ccc(NC(=O)Nc3ccc(Cl)cc3)cc2)c2ccccc12`, the GI50 in assay [1] was 1.84 µM; in assay [2], 2.22 µM; in assay [3] it was 2.79 µM; in assay [4], 1.63 µM; in assay [5], 2.86 µM; in assay [6], 3.49 µM. The GI50 is 2.17 µM in assay [7], 2.04 µM in [8], 1.61 µM in assay [9] and 2.15 µM in assay [10]. The TGI is 3.88 µM in assay [1]; 4.59 µM in assay [2]; 8.36 µM in assay [3]; 3.2 µM in assay [4]; 9.41 µM in assay [5]; 11.9 µM in assay [6]. Besides, the TGI in [7] turned out to be 4.13 µM; in assay [8], 4.21 µM; in assay [9], 3.32 µM; in assay [10] it was 4.76 µM.

For `O=C(NC[C@H](O)CN1CCc2ccccc2C1)c1cc(NC2COC2)ncn1`, the GI50 in assay [1] was 23 µM; in [2], 15.9 µM; in assay [3], 16 µM; in assay [4], 31.6 µM; in assay [5], 18.5 µM; in [6], 5.92 µM. Besides, the GI50 was 2.31 µM in assay [7], 14.7 µM in assay [8], 5.09 µM in assay [9] and 11 µM in [10]. For the same compound, the TGI was 68.3 µM in [1]; 51.7 µM in assay [2]; more than 100 µM in assay [3]; more than 100 µM in assay [4]; more than 100 µM in assay [5]; 96.3 µM in assay [6]. The TGI is 12.9 µM in assay [7], more than 100 µM in assay [8], 45.6 µM in assay [9] and 61.7 µM in assay [10].

In the case of `O=C(Nc1ccc(Br)cc1F)c1cc(Cl)ccc1O`, the GI50 in assay [1] is 0.361 µM; in [2], 0.372 µM; in [3], 0.509 µM; in assay [4], 0.399 µM; in assay [5], 0.491 µM; in assay [6], 1.87 µM. The GI50 in assay [7] was 0.852 µM; in assay [8] it was 1.77 µM; in assay [9], 0.594 µM; in [10], 1.05 µM. Further, the TGI in assay [1] is 4.34 µM; in assay [2], 2 µM; in [3], more than 100 µM; in assay [4] it was 2.07 µM; in assay [5], 5.68 µM; in [6] it was 6.68 µM. The TGI in assay [7] was 3.99 µM; in assay [8], 3.65 µM; in [9], 5.85 µM; in [10], more than 39.2 µM.

Regarding `Cc1nc(N)sc1N=Nc1ccccc1Br`, the TGI in assay [1] was 30.3 µM; in [2] it was 55.2 µM; in assay [3], more than 61.9 µM; in assay [4], more than 88.1 µM; in [5], 57.5 µM; in [6], 63 µM. Also, the TGI in assay [7] is 43.6 µM; in assay [8] it was 97.7 µM; in assay [9] it was more than 59.5 µM; in [10], more than 100 µM.

As for `CC1CC2CCCC(O)=C2C(=O)O1` (stereo not given), the TGI in assay [1], in assay [2], in [3], in [4], in assay [5] and in assay [6] was more than 100 µM in each case. The TGI in [7], in assay [8], in assay [9] and in [10] was more than 100 µM throughout.

`CC1(C)OC2C(CO[Si](C)(C)C(C)(C)C)OC(n3c(I)c(C#C[Si](C)(C)C)c(=O)[nH]c3=O)C2O1` (stereo not given): the GI50 in assay [1] is 1.38 µM; in assay [2], 3.78 µM; in assay [3], 16.1 µM; in assay [4], 1.83 µM; in assay [5], 15.1 µM; in assay [6], 2.04 µM. Also, the GI50 was 2.51 µM in assay [7], more than 100 µM in [8], 15.4 µM in [9] and 1.69 µM in assay [10]. For the same compound, the TGI in [1] was 2.74 µM; in assay [2], 16.7 µM; in [3] it was 31.8 µM; in assay [4], 3.56 µM; in [5], 37.5 µM; in [6], 4.13 µM. The TGI in assay [7] is 9.1 µM; in [8], more than 100 µM; in assay [9] it was 28.9 µM; in assay [10], 3.21 µM.

In the case of `COc1cc(N=Nc2ccc(O)c3ncccc23)c2ncccc2c1`, the GI50 in [1] was 4.26 µM; in [2], 8.4 µM; in [3] it was 1.68 µM; in [4], 4.06 µM; in assay [5] it was 4.45 µM; in assay [6], 2.84 µM. In addition, the GI50 was 2.72 µM in assay [7], 18.5 µM in [8], 2.95 µM in assay [9] and 3.86 µM in assay [10]. Moreover, the TGI in [1], in [2], in assay [3], in [4], in assay [5] and in assay [6] was more than 100 µM each time. The TGI in assay [7] was 28.2 µM; in assay [8], more than 100 µM; in assay [9], 14 µM; in assay [10] it was more than 100 µM.

With `O=C(Cc1ccc(F)c(Cl)c1)Nc1cc(C2(C(F)(F)F)CC2)nn1CC1CCCCC1`, the GI50 in assay [1] was 2.93 µM; in assay [2], 3.99 µM; in assay [3], 3.27 µM; in assay [4], 4.82 µM; in assay [5], 4.46 µM; in assay [6] it was 4.68 µM. For the same compound, the GI50 in assay [7] was 2.37 µM; in assay [8], 3.62 µM; in [9] it was 4.86 µM; in assay [10] it was 3.92 µM. The TGI was 9.67 µM in assay [1]; 13.3 µM in assay [2]; more than 15 µM in [3]; more than 15 µM in [4]; more than 15 µM in [5]; more than 15 µM in assay [6]. Also, the TGI in assay [7] is 10.1 µM; in assay [8] it was more than 15 µM; in assay [9], more than 15 µM; in assay [10] it was 14.4 µM.
